Results on three compounds are retold here after patent publication US20120195938A1, “FORMULATIONS AND METHODS FOR RECOVERY FROM DENTAL SURGERY” (priority 2007, published 2012).

Assay [1] has as its system Runx2. Description: RT-PCR gene expression in hMSCs: Runx2. The assay is classed as cell-based, Human. The conditions noted are these: hMSC, growth media, melatonin 3 × 10^−7 molar, dexamethasone 1 × 10^−7 molar. How it is done: (§1) Human mesenchymal stem cells (hMSCs) were purchased through LONZA BIOSCIENCES. These cells were seeded at a density of approximately 7500 cells/cm^2 upon receipt. Since hMSCs spontaneously differentiate into various cell types after 8 to 9 passages, cells passaged 3 to 4 times were used for each of the examples disclosed herein. Supplemented DMEM media was refreshed every third day during culture.
(§2) Cultures of hMSCs were passaged in growth medium until a sufficient number of flasks for differentiation studies were obtained. Growth medium was removed and replaced with a variety of experimental solutions as described more fully hereinbelow. For qualitative alkaline phosphatase assays described below, the cells were seeded on collagen coated cover slips (BIOCOAT®) at 2000 cells/cm^2. A volume of 3 ml of media was placed into the wells for 5 and 15 days according to the procedures below. For the reverse-transcriptase polymerase chain reaction studies described below, the cells were cultured in their respective media for 5, 10, or 20 days.
(§3) Cells were plated and grown using the general techniques described in Examples 1 and 2. The expression of numerous genes was assessed for cells at Days 5, 10, and 20. Cells were grown in the media as detailed in Tables 1 and 2 below. The expression of the indicated genes was assessed and reported as x-fold increases over the level of normalized gene expression to glyceraldehyde-3-phosphate dehydrogenase (GAPDH) in cells cultured in grown medium (Table 1).
The reaction protocol was completed in a BIO-RAD CHROMO4 Real Time Detection System using the iScript One-Step RT-PCR Kit (BIO-RAD, Hercules, Calif.). Each reaction mixture contained […] of RNA. The 50 μL reaction mixture was placed in the thermal cycler and incubated at 55° C. for 10 minutes, 5 minutes at 95° C. for cDNA synthesis and reverse transcriptase inactivation. The PCR cycling was completed after 45 cycles; 10 seconds at 95° C., 30 seconds at 57° C. A melt curve analysis was completed; 1 minute at 95° C., 1 minute at 55° C. and 10 seconds at 55° C. for 80 cycles, increasing 0.5° C. each cycle. The data was collected and analyzed using the MC OPTICON software.
For the second PCR run, the gene Runx2 was included instead of BSP. Runx2 is a transcription factor required for all remaining steps of osteoblastic differentiation to occur. Accordingly, it is a specific early marker of osteoblastic differentiation.

Assay [2] deals with glycoprotein-IIβ (GPIIβ or GPIIB). The assay can be described thus: RT-PCR gene expression in hMSCs: GPIIB. The assay is classed as cell-based, Human. The conditions noted are these: hMSC, growth media, melatonin 3 × 10^−7 molar, dexamethasone 1 × 10^−7 molar. How it is done:
as §1, §2, §3
The genes of interest were selected based upon their appearance in platelets and mesenchymal stem cells differentiating into osteoblasts. Glyceraldehyde-3 phosphate dehydrogenase (GAPDH) is a well characterized housekeeper gene for differentiating hMSCs. The primers used were: forward: 5′ […] (SEQ ID No. 1), reverse: […] (SEQ ID No. 2). The gene for bone sialoprotein (BSP) was chosen because it is expressed during the differentiation of hMSCs, prior to the mineralization phase, but represents a mature functioning osteoblast. The primers were forward: 5′ […] (SEQ ID No. 3), reverse: […] (SEQ ID No. 4). The gene BGLAP (osteocalcin) was chosen because it is definitive marker for functioning osteoblasts at 21 days. The primers were: forward: 5′ […] (SEQ ID No. 5), reverse: […] (SEQ ID No. 6). The gene for glycoprotein-IIβ (GPIIβ or GPIIB) was chosen because it is expressed in developing megakaryocytes and found in platelets. The primers were: forward: […] (SEQ ID No. 7), reverse: […] (SEQ ID No. 8).
The reaction protocol was completed in a BIO-RAD CHROMO4 Real Time Detection System using the iScript One-Step RT-PCR Kit (BIO-RAD, Hercules, Calif.). Each reaction mixture contained 100 nM of RNA. […] The data was collected and analyzed using the MC OPTICON software.

The subject of assay [3] is BGLAP (osteocalcin). Description: RT-PCR gene expression in hMSCs: osteocalcin. The conditions noted are these: hMSC, growth media, melatonin 3 × 10^−7 molar, dexamethasone 1 × 10^−7 molar.
The subject of assay [4] is alkaline phosphatase activity in hMSC cultures. Description: Quantitative alkaline phosphatase assay in hMSC cultures. The assay is classed as cell-based, Human. The conditions noted are these: differentiation medium, dexamethasone 1×10^−7 M, melatonin 3×10^−7 M, 3.5% (v/v) PRP. How it is done:
Human mesenchymal stem cells (hMSCs) were purchased through LONZA BIOSCIENCES. These cells were seeded at a density of approximately 7500 cells/cm^2 upon receipt. Since hMSCs spontaneously differentiate into various cell types after 8 to 9 passages, cells passaged 3 to 4 times were used for each of the examples disclosed herein. Supplemented DMEM media was refreshed every third day during culture. Cultures of hMSCs were passaged in growth medium until a sufficient number of flasks for differentiation studies were obtained. Growth medium was removed and replaced with a variety of experimental solutions as described more fully hereinbelow. For qualitative alkaline phosphatase assays described below, the cells were seeded on collagen coated cover slips (BIOCOAT®) at 2000 cells/cm^2. A volume of 3 ml of media was placed into the wells for 5 and 15 days according to the procedures below. […] At 5 days and 15 days, cultures in each condition were quantitatively assessed for alkaline phosphatase activity (μg of alkaline phosphatase per mL of solution). Quantitative alkaline phosphatase assays (ANASPEC, California) were completed according to manufacturers' instructions. […] The plate was incubated at room temperature for 30 minutes and the developing color was measured immediately using a BIO-TEK KINETIC MICROPLATE READER Model E[…] […]

In assay [5] the test system is human periodontal ligament cells. The conditions noted are these: media supplemented; Hayami et al., Bone (2007); cited from earlier work.

With `C[C@@H]1C[C@H]2[C@@H]3CCC4=CC(=O)C=C[C@]4(C)[C@@]3(F)[C@@H](O)C[C@]2(C)[C@@]1(O)C(=O)CO` [Dexamethasone, dexamethasone], the “Runx2 mRNA expression, x-fold increase compared to untreated growth control” value in assay [1] (Day 5, n = 3) is on record as 138.04 x-fold; in assay [1] (Day 10, n = 3), 4.16 x-fold; in assay [1] (Day 20, n = 3) it was 15.29 x-fold. Moreover, the “GPIIB mRNA expression, x-fold increase compared to untreated growth control” value in assay [2] (Day 10, n = 3) was found to be 11.59 x-fold; in assay [2] (Day 20, n = 3) it was 4993.43 x-fold. Moreover, the “Osteocalcin mRNA expression, x-fold increase compared to untreated growth control” value in assay [3] (Day 5, n = 3) worked out at 70.22 x-fold; in assay [3] (Day 10, n = 3) it was 142.21 x-fold; in assay [3] (Day 20, n = 3) it was 998.82 x-fold.
As for `COc1ccc2[nH]cc(CCNC(C)=O)c2c1` [Melatonin, melatonin], the “Runx2 mRNA expression, x-fold increase compared to untreated growth control” value in assay [1] (Day 5, n = 3) is reported as 269.75 x-fold; in assay [1] (Day 10, n = 3), 14.39 x-fold; in assay [1] (Day 20, n = 3), 129.83 x-fold. Besides, the alkaline phosphatase activity entry is “showed an effect” in assay [4] (Day 5, FIG. 1B) and “elevated alkaline phosphatase activity” in assay [4] (Day 15, FIG. 1B). Further, the “GPIIB mRNA expression, x-fold increase compared to untreated growth control” value in assay [2] (Day 10, n = 3) is 968.86 x-fold; in assay [2] (Day 20, n = 3) it was 2432.97 x-fold. Further, the “Osteocalcin mRNA expression, x-fold increase compared to untreated growth control” value in assay [3] (Day 5, n = 3) is 260.38 x-fold; in assay [3] (Day 5, n = 3, listed as melatonin), “high levels”; in assay [3] (Day 10, n = 3) it was 1269.3 x-fold; in assay [3] (Day 20, n = 3) it was 1295.79 x-fold.
Take `C[C@@H]1C[C@H]2[C@@H]3CCC4=CC(=O)C=C[C@]4(C)[C@@]3(F)[C@@H](O)C[C@]2(C)[C@@]1(O)C(=O)COP(=O)(O)O` [dexamethasone sodium phosphate solution, Dexamethasone sodium phosphate]: in assay [5], the “osteoblast-specific cell markers in culture” value was “increased osteoblast-specific cell markers”.
